Values of other authors as cited in patent publication US12296127B2, “Intravesical drug delivery devices” (Massachusetts Institute of Technology, priority 2007, dated 2025).

Columns and labels:
[1] = delivered orally or transdermally
[2] = oral delivery (ELMIRON); high first pass effect

| bioavailability [2] | Compound | patients taking the drug who experience side effects [1] | patients who stop treatment due to the severity of the side effects [1] |
| --- | --- | --- | --- |
|  | CCN(CC)CC#CCOC(=O)C(O)(c1ccccc1)C1CCCCC1 (stereo not drawn) [oxybutynin] | approximately 61% | 7 to 11% |
| 3% | Pentosan polysulfate sodium [PPS] |  |  |
